Data from patent US20200407717A1, “METHODS OF MODULATING ANTISENSE ACTIVITY” (Ionis Pharmaceuticals, Inc., priority 2018, published 2020).
e = 2'-O-(2-methoxyethyl) (MOE); d = 2'-deoxy (DNA)

System: Malat1 RNA
Assay: Antisense activity by RT-qPCR, Malat1, HEK cells
Type: cell-based
Method: A431 cells were grown at 10,000 cells per well and pre-treated with a variety of growth factors to determine if the addition of exogenous growth factors affects antisense activity or uptake of modified antisense oligonucleotides in a cell. The growth factors used were EGF, insulin growth factor (IGF), transforming growth factor (TGF), […] (VEGF), hepatocyte growth factor (HGF), platelet growth factor (PGF) and fibroblasts growth factor (FGF). To test antisense activity, cells were treated for 4 hours with a growth factor or vehicle alone, and then treated with compound no. 25690 (complementary to Drosha), compound no. 395254 (complementary to Malat1), or vehicle alone. RNA was isolated from the cells and Drosha or Malat1 RNA levels were measured by RT-qPCR. Human primer probe set 13816 (forward sequence […], designated herein as SEQ ID NO: 3; reverse sequence […], designated herein as SEQ ID NO: 4; probe sequence […], designated herein as SEQ ID NO: 5) was used to measure Drosha mRNA levels and primer probe set RTS2736 (forward sequence […], designated herein as SEQ ID NO: 6; reverse sequence […], designated herein as SEQ ID NO: 7; probe sequence TGCCACATCGCCACCCCGT, designated herein as SEQ ID NO: 8) was used to measure Malat1 RNA levels. Drosha and Malat1 RNA levels were normalized to total RNA content, as measured by RIBOGREEN®. Results are presented in the tables below as normalized RNA levels, relative to untreated control cells.
HEK cells were transfected with 2 μg plasmid encoding EGFR using Lipofectamine 3000 (ThermoFisher) at 2 μg/million cells. Cells were grown for 2 weeks in G418 selection media to select clones overexpressing EGFR. Cells were treated with compound no. 395254 for 16 hours prior to RT-qPCR analysis for Malat1, as in Example 8. The results, shown in the table below, indicate that antisense activity was increased in cells with higher expression levels of EGFR.

Sequence: GGCATATGCAGATAATGTTC (sugars from the 5' end e5 d10 e5, all phosphorothioate, methylation of C not given here) [compound 395254]
- Malat1 RNA (% Control) (1 nM, HEK cells overexpressing EGFR): 100 % control
- Malat1 RNA (% Control) (1 nM, Wild type HEK cells): 100 % control
- Malat1 RNA (% Control) (2 nM, HEK cells overexpressing EGFR): 77.8 % control
- Malat1 RNA (% Control) (2 nM, Wild type HEK cells): 98.3 % control
- Malat1 RNA (% Control) (3.9 nM, HEK cells overexpressing EGFR): 73.4 % control
- Malat1 RNA (% Control) (3.9 nM, Wild type HEK cells): 96 % control
- Malat1 RNA (% Control) (7.8 nM, HEK cells overexpressing EGFR): 73.3 % control
- Malat1 RNA (% Control) (7.8 nM, Wild type HEK cells): 87.5 % control
- Malat1 RNA (% Control) (15.6 nM, HEK cells overexpressing EGFR): 68.1 % control
- Malat1 RNA (% Control) (15.6 nM, Wild type HEK cells): 81.4 % control
- Malat1 RNA (% Control) (31.3 nM, HEK cells overexpressing EGFR): 62.2 % control
- Malat1 RNA (% Control) (31.3 nM, Wild type HEK cells): 86.2 % control
- Malat1 RNA (% Control) (62.5 nM, HEK cells overexpressing EGFR): 62.4 % control
- Malat1 RNA (% Control) (62.5 nM, Wild type HEK cells): 95.4 % control
- Malat1 RNA (% Control) (125 nM, HEK cells overexpressing EGFR): 55.9 % control
- Malat1 RNA (% Control) (125 nM, Wild type HEK cells): 82.7 % control
- Malat1 RNA (% Control) (250 nM, HEK cells overexpressing EGFR): 52.9 % control
- Malat1 RNA (% Control) (250 nM, Wild type HEK cells): 72.1 % control
- Malat1 RNA (% Control) (1000 nM, HEK cells overexpressing EGFR): 36.5 % control
- Malat1 RNA (% Control) (1000 nM, Wild type HEK cells): 47.1 % control
- Malat1 RNA (% Control) (2000 nM, HEK cells overexpressing EGFR): 35.3 % control
- Malat1 RNA (% Control) (2000 nM, Wild type HEK cells): 28.5 % control
- Malat1 RNA (% Control) (5000 nM (so in the source), HEK cells overexpressing EGFR): 44.1 % control
- Malat1 RNA (% Control) (5000 nM (so in the source), Wild type HEK cells): 54.8 % control
- antisense activity in cells with higher expression levels of EGFR (16 hours): increased
